Experiments:
Format in all cases: cell-based, human
[1] = system: MM cells; experiment: Cell cycle analysis (propidium iodide staining), MM cells; conditions: after 48 h and 72 h
Description: The compound according to example 1, hereinafter referred to as GSI15, (compound RH02015SC, Maybridge, Acros Organics, Geel, Belgium) was freshly dissolved as 26 mM stock solution in Dimethylsulfoxide (DMSO). Multiple myeloma therapeutics used were melphalan (marketed as Alkeran®, GlaxoSmithKline, Munich, Germany) and bortezomib (marketed as Velcade®, Janssen-Cilag, Neuss, Germany). Melphalan was freshly dissolved at 10 mg/ml in 0.9% NaCl-solution. Bortezomib was freshly dissolved at 100 ng/ml in 0.9% NaCl solution. Gamma Secretase Inhibitor (GSI) treatment for apoptosis assessment by AnnexinV/PI staining, cell cycle analysis and coculture experiments was performed in 6-well plates. GSI15 stock solution was added directly to the cell suspension. GSI treatment for assaying proliferation was performed in 96-well plates. […]
For cell cycle analysis 2×10^5 cells were spun down, medium was aspirated and cells washed with PBS. […] After 10 minutes incubation in the dark at room temperature, cells were analyzed by flow cytometry. The amount of apoptotic cells was determined by AnnexinV/propidium iodide staining using Human AnnexinV-FITC Kit (Bender Medsystems, Vienna, Austria), according to manufacturer's protocol. […] Cells were then spun down again, resuspended in binding buffer containing PI and analyzed by flow cytometry.

[2] = system: tartrate resistant acid phosphatase-5 (TRAP5); experiment: TRAP5 mRNA expression in OCL (quantitative RT-PCR); conditions: OCL after coculture with OPM-2
Description: In osteoclast coculture experiments, OPM-2 cells (1×10^6 cells) were added to osteoclasts in 60 mm dishes (4×10^6 cells per dish) in 3 ml MEM medium supplemented with 10% FCS, 100 U/ml penicillin, 100 μg/ml streptomycin. GSI15 (30 μM, 60 μM) or DMSO (equivalent to 60 μM) as solvent control were added to each well (daily treatment). After 48 h, 0.5 ml OPM-2 cell suspension were harvested per well and subjected to AnnexinV-FITC/PI staining. Remaining OPM-2 cells were harvested and lysed for either RNA or protein preparation. The monolayer of osteoclasts was washed twice with ice-cold PBS and then lysed for either RNA or protein preparation directly on the plate.
Quantitative real-time reverse transcription-PCR (RT-PCR) analysis was performed using the following primer/probe sets: human Hes-1 (forward—[…], reverse—[…], probe—FAM-[…]-TAMRA) human TRAP5 (forward—[…], reverse—[…], probe FAM-[…]-TAMRA), human beta2-microglobulin (forward—ccc cca ctg aaa aag atg ag, reverse—atc caa tcc aaa tgc ggc, probe—FAM-CCTGCCGTGTGAACCATGTGACTTT-TAMRA) served as normalizer. […] For the RT-PCR reaction SuperScript™ III Platinum® One-Step Quantitative RT-PCR System (Invitrogen, Karlsruhe, Germany) was used. 50 ng total RNA were used per reaction, each RNA sample was analyzed in three replicates. […] Normalized mRNA expression data were then calculated as values relative to the respective untreated sample.

[3] = system: OBL; experiment: Viability assay, OBL
Description: For assaying proliferation/viability of cells CellTiter-Glo Luminescent Cell Viability Assay (Promega, Mannheim, Germany) was used. In this assay the number of viable cells at a given time point is determined by quantification of ATP present, which serves as a measure of metabolically active cells. The assay was carried out according to manufacturer's protocol. Briefly, cells were plated in 96-well plates at 10,000 cells per well in 100 μl medium and treated with indicated amounts of GSI15, with DMSO as solvent control or left untreated. Each treatment was done in four independent replicates in different wells. 24 h and 48 h after start of treatment 30 μl per well were transferred into an opaque-walled plate and lysed using CellTiter-Glo solution. Luminescence was recorded and integrated for two seconds per well. Average values were calculated and normalized to the respective untreated sample.

`CC(C)c1ccc(S(=O)(=O)Nc2cccnc2Oc2ccc(Cl)cc2)cc1` [Example 1, N-(2-(4-chlorophenoxy)pyridin-3-yl)-4-isopropylbenzenesulfonamide] was tested, and the “distribution of G1-, S- and G2-phase” value [1] was “remained unaltered”, the “TRAP5 mRNA expression” value [2] was “completely blocked the upregulation of TRAP5 mRNA expression” and the viability [3] was “no difference between untreated and GSI15 treated”.

From patent publication US20110251220A1, “Pharmaceutical compositions comprising gamma secretase modulators” (priority 2008, published 2011)
